Assay results reported in patent US20230123334A1, “AMINO LIPID COMPOUND, PREPARATION METHOD THEREFOR, AND APPLICATION THEREOF” (SHENZHEN SHENXIN BIOTECHNOLOGY CO., LTD., priority 2020, published 2023).

Legend:
HEK293 cells [1] = assay: Preliminary screening as DNA vectors, GFP transfection of HEK293 cells; type: cell-based; conditions: HEK293 cells; lipid/DOPE liposome with 75 ng plasmid DNA (psin-EGFP-IRES-Puro); number of cells expressing GFP divided by total number of nuclei (Hoechst)
How it was run: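 First, amino lipid and DOPE were vortexed in sodium acetate buffer (pH 5.6) to form liposomes. Next, these were held with 75 ng EGFP plasmid at room temperature for 30 min. Finally, HEK293 cells were added, cultured at 37° C., Hoechst-stained, and GFP+/total nuclei scored by imaging.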

HEK293 cells [2] = assay: Preliminary screening as mRNA vectors, EGFP mRNA transfection of HEK293 cells; type: cell-based; conditions: HEK293 cells, 96-well plates, EGFP mRNA 50 ng per well; percentage of GFP fluorescent cells relative to total number of cells (Hoechst)
How it was run: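 Screening format: EGFP mRNA transfection (50 ng/well) into HEK293 in 10% FBS-supplemented DMEM. Percent green fluorescent cells, normalised to Hoechst nuclear count, gave the value; Lipofectamine2000 was the reference transfectant.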

CCCCCCCCNc1nc(NCCCCCC)nc(NCC2CCN(C)CC2)n1 [Compound N6N8D10] was tested, and the “Absolute DNA transfection efficiency in HEK293 cells” value (“Absolute DNA transfection efficiency” below) (HEK293 cells [1]) was 0.0% and the “Absolute mRNA transfection efficiency in HEK293 cells” value (“Absolute mRNA transfection efficiency” for short) (HEK293 cells [2]) was 0.0%.

With CCCCCCCCCNc1nc(NCCCCCC)nc(NCCN(C)C)n1 [Compound N6N9D1] the “Absolute DNA transfection efficiency” value (HEK293 cells [1]) was 0.0% and the “Absolute mRNA transfection efficiency” value (HEK293 cells [2]) was 0.0%.

For CCCCCCCCCNc1nc(NCCCCCC)nc(NCCN2CCOCC2)n1 [Compound N6N9D2], the “Absolute DNA transfection efficiency” value (HEK293 cells [1]) was 0.0% and the “Absolute mRNA transfection efficiency” value (HEK293 cells [2]) was 0.0%.

CCCCCCCCCNc1nc(NCCCCCC)nc(NCCN2CCCC2)n1 [Compound N6N9D3] was tested, and the “Absolute DNA transfection efficiency” value (HEK293 cells [1]) was 0.3% and the “Absolute mRNA transfection efficiency” value (HEK293 cells [2]) was 0.4%.

In the case of CCCCCCCCCNc1nc(NCCCCCC)nc(NCCN2CCCCC2)n1 [Compound N6N9D4], the “Absolute DNA transfection efficiency” value (HEK293 cells [1]) is reported as 0.0% and the “Absolute mRNA transfection efficiency” value (HEK293 cells [2]) is reported as 0.3%.

For CCCCCCCCCNc1nc(NCCCCCC)nc(NCCN2CCN(C)CC2)n1 [Compound N6N9D5], the “Absolute DNA transfection efficiency” value (HEK293 cells [1]) was 0.0% and the “Absolute mRNA transfection efficiency” value (HEK293 cells [2]) was 0.1%.

For CCCCCCCCCNc1nc(NCCCCCC)nc(NCCCN(C)C)n1 [Compound N6N9D6], the “Absolute DNA transfection efficiency” value (HEK293 cells [1]) was 0.0% and the “Absolute mRNA transfection efficiency” value (HEK293 cells [2]) was 0.2%.

CCCCCCCCCNc1nc(NCCCCCC)nc(NCCN(CC)CC)n1 [Compound N6N9D7] was tested, and the “Absolute DNA transfection efficiency” value (HEK293 cells [1]) was 0.0% and the “Absolute mRNA transfection efficiency” value (HEK293 cells [2]) was 0.0%.

CCCCCCCCCNc1nc(NCCCCCC)nc(NCCCN2CCOCC2)n1 [Compound N6N9D8] was tested, and the “Absolute DNA transfection efficiency” value (HEK293 cells [1]) was 0.0% and the “Absolute mRNA transfection efficiency” value (HEK293 cells [2]) was 0.0%.

For CCCCCCCCCNc1nc(NCCCCCC)nc(NCCCN2CCN(C)CC2)n1 [Compound N6N9D9], the “Absolute DNA transfection efficiency” value (HEK293 cells [1]) was 0.0% and the “Absolute mRNA transfection efficiency” value (HEK293 cells [2]) was 0.0%.

CCCCCCCCCNc1nc(NCCCCCC)nc(NCC2CCN(C)CC2)n1 [Compound N6N9D10] was tested, and the “Absolute DNA transfection efficiency” value (HEK293 cells [1]) was 0.0% and the “Absolute mRNA transfection efficiency” value (HEK293 cells [2]) was 0.3%.

CCCCCCCCCCCNc1nc(NCCCCCC)nc(NCCN(C)C)n1 [Compound N6N11D1] was tested, and the “Absolute DNA transfection efficiency” value (HEK293 cells [1]) was 0.0% and the “Absolute mRNA transfection efficiency” value (HEK293 cells [2]) was 0.1%.

In the case of CCCCCCCCCCCNc1nc(NCCCCCC)nc(NCCN2CCOCC2)n1 [Compound N6N11D2], the “Absolute DNA transfection efficiency” value (HEK293 cells [1]) is reported as 0.0% and the “Absolute mRNA transfection efficiency” value (HEK293 cells [2]) is reported as 0.0%.

In the case of CCCCCCCCCCCNc1nc(NCCCCCC)nc(NCCN2CCCC2)n1 [Compound N6N11D3], the “Absolute DNA transfection efficiency” value (HEK293 cells [1]) is reported as 0.3% and the “Absolute mRNA transfection efficiency” value (HEK293 cells [2]) is reported as 0.9%.

For CCCCCCCCCCCNc1nc(NCCCCCC)nc(NCCN2CCCCC2)n1 [Compound N6N11D4], the “Absolute DNA transfection efficiency” value (HEK293 cells [1]) was 0.0% and the “Absolute mRNA transfection efficiency” value (HEK293 cells [2]) was 0.0%.

For CCCCCCCCCCCNc1nc(NCCCCCC)nc(NCCN2CCN(C)CC2)n1 [Compound N6N11D5], the “Absolute DNA transfection efficiency” value (HEK293 cells [1]) was 0.1% and the “Absolute mRNA transfection efficiency” value (HEK293 cells [2]) was 0.5%.

With CCCCCCCCCCCNc1nc(NCCCCCC)nc(NCCCN(C)C)n1 [Compound N6N11D6] the “Absolute DNA transfection efficiency” value (HEK293 cells [1]) was 0.2% and the “Absolute mRNA transfection efficiency” value (HEK293 cells [2]) was 0.0%.

With CCCCCCCCCCCNc1nc(NCCCCCC)nc(NCCN(CC)CC)n1 [Compound N6N11D7] the “Absolute DNA transfection efficiency” value (HEK293 cells [1]) was 0.0% and the “Absolute mRNA transfection efficiency” value (HEK293 cells [2]) was 0.0%.

For CCCCCCCCCCCNc1nc(NCCCCCC)nc(NCCCN2CCOCC2)n1 [Compound N6N11D8], the “Absolute DNA transfection efficiency” value (HEK293 cells [1]) was 0.0% and the “Absolute mRNA transfection efficiency” value (HEK293 cells [2]) was 0.1%.

For CCCCCCCCCCCNc1nc(NN)nc(NCCCN2CCN(C)CC2)n1 [Compound N6N11D9], the “Absolute DNA transfection efficiency” value (HEK293 cells [1]) was 0.0% and the “Absolute mRNA transfection efficiency” value (HEK293 cells [2]) was 0.0%.

With CCCCCCCCCCCNc1nc(NCCCCCC)nc(NCC2CCN(C)CC2)n1 [Compound N6N11D10] the “Absolute DNA transfection efficiency” value (HEK293 cells [1]) was 0.0% and the “Absolute mRNA transfection efficiency” value (HEK293 cells [2]) was 0.0%.

For CCCCCCCCCCCCNc1nc(NCCCCCC)nc(NCCN(C)C)n1 [Compound N6N12D1], the “Absolute DNA transfection efficiency” value (HEK293 cells [1]) was 0.0% and the “Absolute mRNA transfection efficiency” value (HEK293 cells [2]) was 0.2%.

For CCCCCCCCCCCCNc1nc(NCCCCCC)nc(NCCN2CCOCC2)n1 [Compound N6N12D2], the “Absolute DNA transfection efficiency” value (HEK293 cells [1]) was 0.0% and the “Absolute mRNA transfection efficiency” value (HEK293 cells [2]) was 0.0%.

In the case of CCCCCCCCCCCCNc1nc(NCCCCCC)nc(NCCN2CCCC2)n1 [Compound N6N12D3], the “Absolute DNA transfection efficiency” value (HEK293 cells [1]) is reported as 0.2% and the “Absolute mRNA transfection efficiency” value (HEK293 cells [2]) is reported as 0.5%.

In the case of CCCCCCCCCCCCNc1nc(NCCCCCC)nc(NCCN2CCCCC2)n1 [Compound N6N12D4], the “Absolute DNA transfection efficiency” value (HEK293 cells [1]) is reported as 0.0% and the “Absolute mRNA transfection efficiency” value (HEK293 cells [2]) is reported as 0.0%.

In the case of CCCCCCCCCCCCNc1nc(NCCCCCC)nc(NCCN2CCN(C)CC2)n1 [Compound N6N12D5], the “Absolute DNA transfection efficiency” value (HEK293 cells [1]) is reported as 0.1% and the “Absolute mRNA transfection efficiency” value (HEK293 cells [2]) is reported as 0.0%.

CCCCCCCCCCCCNc1nc(NCCCCCC)nc(NCCCN(C)C)n1 [Compound N6N12D6] was tested, and the “Absolute DNA transfection efficiency” value (HEK293 cells [1]) was 0.3% and the “Absolute mRNA transfection efficiency” value (HEK293 cells [2]) was 0.1%.

CCCCCCCCCCCCNc1nc(NCCCCCC)nc(NCCN(CC)CC)n1 [Compound N6N12D7] was tested, and the “Absolute DNA transfection efficiency” value (HEK293 cells [1]) was 0.0% and the “Absolute mRNA transfection efficiency” value (HEK293 cells [2]) was 0.0%.

In the case of CCCCCCCCCCCCNc1nc(NCCCCCC)nc(NCCCN2CCOCC2)n1 [Compound N6N12D8], the “Absolute DNA transfection efficiency” value (HEK293 cells [1]) is reported as 0.0% and the “Absolute mRNA transfection efficiency” value (HEK293 cells [2]) is reported as 0.1%.

For CCCCCCCCCCCCNc1nc(NCCCCCC)nc(NCCCN2CCN(C)CC2)n1 [Compound N6N12D9], the “Absolute DNA transfection efficiency” value (HEK293 cells [1]) was 0.0% and the “Absolute mRNA transfection efficiency” value (HEK293 cells [2]) was 0.0%.

For CCCCCCCCCCCCNc1nc(NCCCCCC)nc(NCC2CCN(C)CC2)n1 [Compound N6N12D10], the “Absolute DNA transfection efficiency” value (HEK293 cells [1]) was 0.2% and the “Absolute mRNA transfection efficiency” value (HEK293 cells [2]) was 0.0%.

For CCCCCCCCCCCCCNc1nc(NCCCCCC)nc(NCCN(C)C)n1 [Compound N6N13D1], the “Absolute DNA transfection efficiency” value (HEK293 cells [1]) was 0.0% and the “Absolute mRNA transfection efficiency” value (HEK293 cells [2]) was 0.0%.

For CCCCCCCCCCCCCNc1nc(NCCCCCC)nc(NCCN2CCOCC2)n1 [Compound N6N13D2], the “Absolute DNA transfection efficiency” value (HEK293 cells [1]) was 0.0% and the “Absolute mRNA transfection efficiency” value (HEK293 cells [2]) was 0.0%.

For CCCCCCCCCCCCCNc1nc(NCCCCCC)nc(NCCN2CCCC2)n1 [Compound N6N13D3], the “Absolute DNA transfection efficiency” value (HEK293 cells [1]) was 0.5% and the “Absolute mRNA transfection efficiency” value (HEK293 cells [2]) was 1.0%.
